According to patent US9695155B2, “Herbicidal substituted pyrimidinyloxy benzene compounds” (E. I. DU PONT DE NEMOURS AND COMPANY, priority 2013, dated 2017):

Assays:
Assay in all cases: Test E preemergence
[1] = tested on: wild poinsettia; format: in vivo, Euphorbia heterophylla; settings: for Poinsettia, Wild plant response rating: scale 0 to 100 (0 no effect, 100 complete control)
Text: (§1) Seeds of plant species selected from corn (Zea mays), soybean (Glycine max), velvetleaf (Abutilon theophrasti), lambsquarters (Chenopodium album), wild poinsettia (Euphorbia heterophylla), palmer pigweed (Amaranthus palmeri), waterhemp (common waterhemp, Amaranthus rudis), surinam grass (Brachiaria decumbens), large (Lg) crabgrass (Digitaria sanguinalis), Brazilian crabgrass (Digitaria horizontalis), fall panicum (Panicum dichotomiflorum), giant foxtail (Setaria faberii), green foxtail (Setaria viridis), goosegrass (Eleusine indica), johnsongrass (Sorghum halepense), ragweed (common ragweed, Ambrosia elatior), barnyardgrass (Echinochloa crus-galli), sandbur (southern sandbur, Cenchrus echinatus), arrowleaf sida (Sida rhombifolia), Italian ryegrass (Lolium multiflorum), dayflower (Virginia (VA) dayflower, Commelina virginica), field bindweed (Convolvulus arvensis), morningglory (Ipomoea coccinea), nightshade (eastern black nightshade, Solanum ptycanthum), kochia (Kochia scoparia), yellow nutsedge (Cyperus esculentus), cocklebur (common cocklebur, Xanthium strumarium), smartweed (ladysthumb smartweed, and hairy beggarticks (Bidens pilosa), were planted into a silt loam soil and treated preemergence with test chemicals formulated in a non-phytotoxic solvent mixture which included a surfactant.
(§2) At the same time, plants from these crop and weed species and also horseweed (Canada horseweed, Conyza canadensis), waterhemp_RES1, (ALS & Triazine resistant common waterhemp, Amaranthus rudis), and waterhemp_RES2, (ALS & HPPD resistant common waterhemp, Amaranthus rudis) were planted in pots containing Redi-Earth® planting medium (Scotts Company, 14111 Scottslawn Road, Marysville, Ohio 43041) comprising spaghnum peat moss, vermiculite, wetting agent and starter nutrients were treated with postemergence applications of test chemicals formulated in the same manner. Plants ranged in height from 2 to 18 cm for postemergence treatments (1- to 4-leaf stage). Treated plants and controls were maintained in a greenhouse for 14 to 21 days, after which time all species were compared to controls and visually evaluated. Plant response ratings, summarized in Table E, are based on a scale of 0 to 100 where 0 is no effect and 100 is complete control. A dash (-) response means no test result.

[2] = tested on: surinam grass; format: in vivo, Brachiaria decumbens; settings: for Surinam Grass plant response rating: scale 0 to 100 (0 no effect, 100 complete control)
Text: as §1, §2

[3] = tested on: giant foxtail; format: in vivo, Setaria faberii; settings: for Foxtail, Giant plant response rating: scale 0 to 100 (0 no effect, 100 complete control)
Text: as §1, §2

[4] = tested on: green foxtail; format: in vivo, Setaria viridis; settings: for Foxtail, Green plant response rating: scale 0 to 100 (0 no effect, 100 complete control)
Text: as §1, §2

[5] = tested on: goosegrass; format: in vivo, Eleusine indica; settings: for Goosegrass plant response rating: scale 0 to 100 (0 no effect, 100 complete control)
Text: as §1, §2

[6] = tested on: ragweed; format: in vivo, Ambrosia elatior; settings: for Ragweed plant response rating: scale 0 to 100 (0 no effect, 100 complete control)
Text: as §1, §2

[7] = tested on: morningglory; format: in vivo, Ipomoea coccinea; settings: for Morningglory plant response rating: scale 0 to 100 (0 no effect, 100 complete control)
Text: as §1, §2

[8] = tested on: nightshade; format: in vivo, Solanum ptycanthum; settings: for Nightshade plant response rating: scale 0 to 100 (0 no effect, 100 complete control)
Text: as §1, §2

[9] = tested on: yellow nutsedge; format: in vivo, Cyperus esculentus; settings: for Nutsedge, Yellow plant response rating: scale 0 to 100 (0 no effect, 100 complete control)
Text: as §1, §2

[10] = tested on: hairy beggarticks; format: in vivo, Bidens pilosa; settings: for Beggarticks plant response rating: scale 0 to 100 (0 no effect, 100 complete control)
Text: as §1, §2

[11] = 125 g ai/ha, scale 0 to 100, 0 no effect, 100 complete control
[12] = 250 g ai/ha, scale 0 to 100, 0 no effect, 100 complete control
[13] = preemergence, 125 g ai/ha, scale 0 to 100, 0 no effect, 100 complete control
[14] = 8 g ai/ha, scale 0 to 100, 0 is no effect, 100 is complete control

In the case of `Cc1cnc(Oc2cccc(C#N)c2-n2cc(C(F)(F)F)cn2)nc1` [Compound 180], the “Poinsettia, Wild plant response rating” value ([1]; 31 g ai/ha) is reported as 10, the “Poinsettia, Wild plant response rating” value ([1]; 62 g ai/ha) is reported as 15 and the “Plant response rating, Poinsettia, Wild” value [1, 11] is reported as 65. The “Plant response rating, Poinsettia, Wild” value [1, 12] was 98, the “Surinam Grass plant response rating” value ([2]; 31 g ai/ha) was 10 and the “Surinam Grass plant response rating” value ([2]; 62 g ai/ha) was 25. For the same molecule, the “Plant response rating, Surinam Grass” value [2, 11] was 75, the “Plant response rating, Surinam Grass” value [2, 12] was 100 and the “Foxtail, Giant plant response rating” value ([3]; 31 g ai/ha) was 75. For the same molecule, the “Foxtail, Giant plant response rating” value ([3]; 62 g ai/ha) was 100, the “Plant response rating, Foxtail, Giant” value [3, 11] was 100 and the “Plant response rating, Foxtail, Giant” value [3, 12] was 100. For the same molecule, the “Foxtail, Green plant response rating” value ([4]; 31 g ai/ha) was 65, the “Foxtail, Green plant response rating” value ([4]; 62 g ai/ha) was 100 and the “Plant response rating, Foxtail, Green” value [4, 11] was 100. For the same molecule, the “Plant response rating, Foxtail, Green” value [4, 12] was 100, the “Goosegrass plant response rating” value ([5]; 31 g ai/ha) was 70 and the “Goosegrass plant response rating” value ([5]; 62 g ai/ha) was 90. For the same molecule, the “Plant response rating, Goosegrass” value [5, 11] was 98, the “Plant response rating, Goosegrass” value [5, 12] was 100 and the “Ragweed plant response rating” value ([6]; 31 g ai/ha) was 70. For the same molecule, the “Ragweed plant response rating” value ([6]; 62 g ai/ha) was 90, the “Plant response rating, Ragweed” value [6, 11] was 100 and the “Plant response rating, Ragweed” value [6, 12] was 100. The “Morningglory plant response rating” value ([7]; 31 g ai/ha) was 0, the “Morningglory plant response rating” value ([7]; 62 g ai/ha) was 15 and the “Plant response rating, Morningglory” value [7, 11] was 60. The “Plant response rating, Morningglory” value [7, 12] was 100, the “Nightshade plant response rating” value ([8]; 31 g ai/ha) was 75 and the “Nightshade plant response rating” value ([8]; 62 g ai/ha) was 98. For the same molecule, the “Plant response rating, Nightshade” value [8, 11] was 98, the “Plant response rating, Nightshade” value [8, 12] was 100 and the “Nutsedge, Yellow plant response rating” value ([9]; 31 g ai/ha) was 0. The “Nutsedge, Yellow plant response rating” value ([9]; 62 g ai/ha) was 30, the “Plant response rating, Nutsedge, Yellow” value [9, 11] was 60 and the “Plant response rating, Nutsedge, Yellow” value [9, 12] was 75. For the same molecule, the “Beggarticks plant response rating” value ([10]; 31 g ai/ha, preemergence) was 10, the “Beggarticks plant response rating” value ([10]; 62 g ai/ha, preemergence) was 20 and the “Plant response rating, Beggarticks” value [10, 13] was 40. For the same molecule, the “Plant response rating, Beggarticks” value ([10]; preemergence, 250 g ai/ha, scale 0 to 100, 0 no effect, 100 complete control) was 90.

For `FC(F)c1cccc(Oc2ncc(Cl)cn2)c1-n1cc(C(F)(F)F)cn1` [Compound 170], the “Plant response rating, Poinsettia, Wild” value [1, 14] was 0, the “Poinsettia, Wild plant response rating” value ([1]; 31 g ai/ha) was 20 and the “Poinsettia, Wild plant response rating” value ([1]; 62 g ai/ha) was 25. The “Plant response rating, Poinsettia, Wild” value [1, 11] was 40, the “Plant response rating, Surinam Grass” value [2, 14] was 0 and the “Surinam Grass plant response rating” value ([2]; 31 g ai/ha) was 0. The “Surinam Grass plant response rating” value ([2]; 62 g ai/ha) was 15, the “Plant response rating, Surinam Grass” value [2, 11] was 25 and the “Plant response rating, Foxtail, Giant” value [3, 14] was 0. For the same molecule, the “Foxtail, Giant plant response rating” value ([3]; 16 g ai/ha) was 0, the “Foxtail, Giant plant response rating” value ([3]; 31 g ai/ha) was 25 and the “Foxtail, Giant plant response rating” value ([3]; 62 g ai/ha) was 100. The “Plant response rating, Foxtail, Giant” value [3, 11] was 100, the “Plant response rating, Foxtail, Green” value [4, 14] was 0 and the “Foxtail, Green plant response rating” value ([4]; 16 g ai/ha) was 0. For the same molecule, the “Foxtail, Green plant response rating” value ([4]; 31 g ai/ha) was 40, the “Foxtail, Green plant response rating” value ([4]; 62 g ai/ha) was 90 and the “Plant response rating, Foxtail, Green” value [4, 11] was 100. For the same molecule, the “Plant response rating, Goosegrass” value [5, 14] was 0, the “Goosegrass plant response rating” value ([5]; 31 g ai/ha) was 40 and the “Goosegrass plant response rating” value ([5]; 62 g ai/ha) was 75. The “Plant response rating, Goosegrass” value [5, 11] was 98, the “Plant response rating, Ragweed” value [6, 14] was 0 and the “Ragweed plant response rating” value ([6]; 31 g ai/ha) was 0. For the same molecule, the “Ragweed plant response rating” value ([6]; 62 g ai/ha) was 5, the “Plant response rating, Ragweed” value [6, 11] was 35 and the “Plant response rating, Morningglory” value [7, 14] was 0. The “Morningglory plant response rating” value ([7]; 31 g ai/ha) was 10, the “Morningglory plant response rating” value ([7]; 62 g ai/ha) was 35 and the “Plant response rating, Morningglory” value [7, 11] was 95. For the same molecule, the “Plant response rating, Nightshade” value [8, 14] was 0, the “Nightshade plant response rating” value ([8]; 31 g ai/ha) was 50 and the “Nightshade plant response rating” value ([8]; 62 g ai/ha) was 98. The “Plant response rating, Nightshade” value [8, 11] was 98, the “Plant response rating, Nutsedge, Yellow” value [9, 14] was 0 and the “Nutsedge, Yellow plant response rating” value ([9]; 31 g ai/ha) was 20. The “Nutsedge, Yellow plant response rating” value ([9]; 62 g ai/ha) was 30, the “Plant response rating, Nutsedge, Yellow” value [9, 11] was 40 and the “Plant response rating, Beggarticks” value ([10]; 8 g ai/ha, preemergence, scale 0 to 100, 0 is no effect, 100 is complete control) was 0. The “Beggarticks plant response rating” value ([10]; 16 g ai/ha, preemergence) was 0, the “Beggarticks plant response rating” value ([10]; 31 g ai/ha, preemergence) was 0 and the “Beggarticks plant response rating” value ([10]; 62 g ai/ha, preemergence) was 0. The “Plant response rating, Beggarticks” value [10, 13] was 0.

For `Cc1cnc(Oc2cccc(C#N)c2-n2cc(C#N)cn2)nc1` [Compound 90], the “Poinsettia, Wild plant response rating” value ([1]; 16 g ai/ha) was 10, the “Poinsettia, Wild plant response rating” value ([1]; 31 g ai/ha) was 35 and the “Poinsettia, Wild plant response rating” value ([1]; 62 g ai/ha) was 70. For the same molecule, the “Plant response rating, Poinsettia, Wild” value [1, 11] was 75, the “Surinam Grass plant response rating” value ([2]; 16 g ai/ha) was 0 and the “Surinam Grass plant response rating” value ([2]; 31 g ai/ha) was 0. For the same molecule, the “Surinam Grass plant response rating” value ([2]; 62 g ai/ha) was 0, the “Plant response rating, Surinam Grass” value [2, 11] was 0 and the “Foxtail, Giant plant response rating” value ([3]; 16 g ai/ha) was 0. For the same molecule, the “Foxtail, Giant plant response rating” value ([3]; 31 g ai/ha) was 0, the “Foxtail, Giant plant response rating” value ([3]; 62 g ai/ha) was 15 and the “Plant response rating, Foxtail, Giant” value [3, 11] was 50. The “Foxtail, Green plant response rating” value ([4]; 16 g ai/ha) was 0, the “Foxtail, Green plant response rating” value ([4]; 31 g ai/ha) was 0 and the “Foxtail, Green plant response rating” value ([4]; 62 g ai/ha) was 10. The “Plant response rating, Foxtail, Green” value [4, 11] was 50, the “Goosegrass plant response rating” value ([5]; 16 g ai/ha) was 0 and the “Goosegrass plant response rating” value ([5]; 31 g ai/ha) was 0. For the same molecule, the “Goosegrass plant response rating” value ([5]; 62 g ai/ha) was 5, the “Plant response rating, Goosegrass” value [5, 11] was 50 and the “Ragweed plant response rating” value ([6]; 16 g ai/ha) was 0. The “Ragweed plant response rating” value ([6]; 31 g ai/ha) was 50, the “Ragweed plant response rating” value ([6]; 62 g ai/ha) was 50 and the “Plant response rating, Ragweed” value [6, 11] was 75. For the same molecule, the “Morningglory plant response rating” value ([7]; 16 g ai/ha) was 0, the “Morningglory plant response rating” value ([7]; 31 g ai/ha) was 0 and the “Morningglory plant response rating” value ([7]; 62 g ai/ha) was 20. The “Plant response rating, Morningglory” value [7, 11] was 35, the “Nightshade plant response rating” value ([8]; 16 g ai/ha) was 10 and the “Nightshade plant response rating” value ([8]; 31 g ai/ha) was 10. For the same molecule, the “Nightshade plant response rating” value ([8]; 62 g ai/ha) was 80, the “Plant response rating, Nightshade” value [8, 11] was 80 and the “Nutsedge, Yellow plant response rating” value ([9]; 16 g ai/ha) was 0. The “Nutsedge, Yellow plant response rating” value ([9]; 31 g ai/ha) was 0, the “Nutsedge, Yellow plant response rating” value ([9]; 62 g ai/ha) was 0 and the “Plant response rating, Nutsedge, Yellow” value [9, 11] was 0. For the same molecule, the “Beggarticks plant response rating” value ([10]; 16 g ai/ha, preemergence) was 0, the “Beggarticks plant response rating” value ([10]; 31 g ai/ha, preemergence) was 5 and the “Plant response rating, Beggarticks” value ([10]; Preemergence, 62 g ai/ha, scale 0 to 100, 0 no effect, 100 complete control) was 10. The “Plant response rating, Beggarticks” value [10, 13] was 30.
